One may read the IC50 as the midpoint of a concentration-inhibition curve.

For series [1], the system named is fibrin-induced microglia activation. As to the kind of experiment: Image-based assay of fibrin-induced microglia activation (HTS and dose response). Type of series: cell-based, rat. The note with it: for IC50 / inhibition at 10 µM: Rattus norvegicus, Microglia; for inhibition at 10 µM: primary microglia HTS, fibrin stimulation, increased cell size (>800 μm^2) as marker of activation, read-out: Fibrin % inhibition.

Series [2] concerns LPS-induced microglia activation. As to the kind of experiment: Image-based assay of LPS-induced microglia activation (HTS and dose response). In kind it is cell-based, rat. Conditions: Rattus norvegicus, Microglia; for inhibition at 10 µM: primary microglia HTS, LPS stimulation, increased cell size (>800 μm^2) as marker of activation, read-out: LPS % inhibition.
In series [3] the test system is fibrin- and LPS-induced microglia activation. As to the kind of experiment: cells. The note with it: for inhibition at 10 µM: Rattus norvegicus. Type of series: cell-based, rat.
A short description of series [4]: in vitro. Conditions: rat, Cell Toxicity IC50 (uM) [cFib assay].
Series [5] is described as follows: in vitro. The note with it: rat.
The test system of series [6] is primary rat microglia. Put plainly: Cell toxicity (dead cells, size <150 μm2) in LPS assay. Conditions: for LPS % cell toxicity: primary microglia HTS, LPS stimulation, decreased size (<150 μm^2) as marker of toxicity; for IC50: read-out: Cell Toxicity IC50 (uM) [LPS assay], LPS assay.
Series [7] concerns primary rat microglia. As to the kind of experiment: Cell toxicity (dead cells, size <150 μm2) in coated fibrin (cFib) assay.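 As to Fibrin % cell toxicity: share of dead cells sized under 150 µm2 at 10 µM in fibrin-stimulated microglia HTS.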 The note with it: primary microglia HTS, fibrin stimulation; decreased size (<150 μm^2) as marker of toxicity.
Where [8] appears, read: 48 h, Table 1, dose response 0.001-20 μM, triplicates, primary rat microglia, 48 h, read-out: Fibrin IC50.
Setting [9] is: dose response, fibrin-induced microglia activation, read-out: Fibrin IC50.
Setting [10] is: fibrin-induced microglia activation, dose response, read-out: Fibrin IC50 (uM) (Suppl. Table 7).
Where [11] appears, read: 48 h, Table 1, dose response 0.001-20 μM, triplicates, primary rat microglia, 48 h, read-out: LPS IC50.
Where [12] appears, read: LPS-induced microglia activation, dose response, read-out: LPS IC50 (uM) (Suppl. Table 7).
Setting [13] is: dose response, LPS-induced microglia activation, read-out: LPS IC50.
Setting [14] is: HTS of 1907 compounds, quadrant by fibrin and LPS inhibition.
The mark [15] stands for this setting: Microglia, HTS hit classification, read-out: Hit.
Where [16] appears, read: hit classification in microglia HTS, read-out: Cherry-picked Hit (Suppl. Table 7).
Setting [17] is: quadrant by fibrin and LPS inhibition in HTS of 1907 compounds.
Where [18] appears, read: Table 3, read-out: Fibrin IC50 (uM) (Suppl. Table 7).
Where [19] appears, read: Table 3, read-out: LPS IC50 (uM) (Suppl. Table 7).
Setting [20] is: Microglia, Table 3, read-out: Cherry-picked Hit (Suppl. Table 7).

The structures appear in SMILES notation. Where a name gives a salt, the structure may show the parent alone. Read-outs that look alike come from different tables or passages of the source.

`O=P(O)(O)C(O)(Cc1cccnc1)P(=O)(O)O` [Risedronate sodium, reference compound]: the half-inhibitory concentration (IC50) in series [1] (setting [8]) is 19 µM; in series [1] (setting [9]) it was 19 µM; in series [1] (setting [10]), 19 µM; in series [2] (setting [11]), above 20 µM; in series [2] (setting [12]), above 20 µM; in series [2] (setting [13]), above 20 µM. In addition, the IC50 in series [4] (cFib assay) and in series [5] was above 20 µM in each case. In addition, the inhibition at 10 µM in series [1] is 81%; in series [2] (48 h), 16%; in series [3] (setting [15]) it was above 50%; in series [3] (setting [16]) it was above 50%. Further, the “Quadrant (FIG. 5b)” value is recorded as “Q3” in series [3] (setting [14]); “Q3” in series [3] (Table 1, screen at 10 μM); “Q3” in series [3] (setting [17]). Further, the “LPS % cell toxicity” value in series [6] was 0%. The “Fibrin % cell toxicity” value in series [7] came out at 2%.

`CC(NCCc1ccc(O)cc1)C(O)c1ccc(O)cc1` (stereo not drawn) [Ritodrine hydrochloride, reference compound]: the “Fibrin Selectivity” value in series [1] is reported as 33; in series [1] (fibrin vs LPS, Table 6) it was 33. In addition, the “Fibrin Selectivity (LOG10)” value in series [1] turned out to be 1.51; in series [1] (fibrin vs LPS, LOG10, Table 6), 1.51. For the same molecule, the IC50 was 0.6 µM in series [1] (setting [8]); 0.6 µM in series [1] (setting [18]); 0.6 µM in series [1] (Table 6, read-out: Fibrin IC50 (uM) (Suppl. Table 7)); 0.6 µM in series [1] (setting [9]); 0.6 µM in series [1] (setting [10]); above 20 µM in series [2] (setting [11]). For the same molecule, the half-inhibitory concentration (IC50) was above 20 µM in series [2] (setting [12]); above 20 µM in series [2] (setting [19]); above 20 µM in series [2] (Table 6, read-out: LPS IC50 (uM) (Suppl. Table 7)); above 20 µM in series [2] (setting [13]); above 20 µM in series [4] (Table 3); above 20 µM in series [4] (cFib assay). Moreover, the concentration for half-maximal inhibition (IC50) in series [4] (cFib assay, Table 6) was above 20 µM; in series [5], above 20 µM; in series [6], above 20 µM; in series [6] (Table 6) it was above 20 µM. In addition, the inhibition at 10 µM is 51% in series [1], 36% in series [2] (48 h), above 50% in series [3] (setting [20]) and above 50% in series [3] (setting [15]). The “Quadrant (FIG. 5b)” value in series [3] (setting [14]) is listed as “Q3”; in series [3] (Table 1, screen at 10 μM) it was “Q3”; in series [3] (Table 3, screen at 10 μM), “Q3”; in series [3] (microglia HTS, Table 6) it was “Q3”; in series [3] (setting [17]), “Q3”. For the same molecule, the “LPS % cell toxicity” value in series [6] was 1%. The “Fibrin % cell toxicity” value in series [7] is 1%.

With `CC(C)c1nc(N(C)S(C)(=O)=O)nc(-c2ccc(F)cc2)c1/C=C/[C@@H](O)C[C@@H](O)CC(=O)O` [Rosuvastatin, reference compound], the “Fibrin Selectivity” value in series [1] was determined as 12. Also, the “Fibrin Selectivity (LOG10)” value in series [1] is given as 1.09. Also, the half-inhibitory concentration (IC50) came to 0.3 µM in series [1] (setting [8]); 0.3 µM in series [1] (setting [18]); 0.3 µM in series [1] (setting [9]); 0.3 µM in series [1] (setting [10]); 3 µM in series [2] (setting [11]); 3 µM in series [2] (setting [12]). The half-inhibitory concentration (IC50) is 3 µM in series [2] (setting [19]); 3 µM in series [2] (setting [13]); 20 µM in series [4] (Table 3); 20 µM in series [4] (cFib assay); above 20 µM in series [5]; above 20 µM in series [6]. The inhibition at 10 µM is 93% in series [1], 95% in series [2] (48 h), above 50% in series [3] (setting [20]) and above 50% in series [3] (setting [15]). Moreover, the “Quadrant (FIG. 5b)” value in series [3] (setting [14]) is recorded as “Q2”; in series [3] (Table 1, screen at 10 μM) it was “Q2”; in series [3] (Table 3, screen at 10 μM), “Q2”; in series [3] (setting [17]) it was “Q2”. The “LPS % cell toxicity” value in series [6] was determined as 4%. In series [7], the “Fibrin % cell toxicity” value is reported as 2%.

Regarding `OCc1ccccc1O[C@@H]1O[C@H](CO)[C@@H](O)[C@H](O)[C@H]1O` [Salicin, reference compound], the half-inhibitory concentration (IC50) in series [1] (setting [8]), in series [1] (setting [9]), in series [1] (setting [10]), in series [2] (setting [11]), in series [2] (setting [12]) and in series [2] (setting [13]) was above 20 µM each time. Also, the half-inhibitory concentration (IC50) in series [4] (cFib assay) and in series [5] was above 20 µM each time. The inhibition at 10 µM in series [1] is 76%; in series [2] (48 h), 61%; in series [3] (setting [15]), above 50%; in series [3] (setting [16]), above 50%. Also, the “Quadrant (FIG. 5b)” value in series [3] (setting [14]) is “Q2”; in series [3] (Table 1, screen at 10 μM) it was “Q2”; in series [3] (setting [17]) it was “Q2”. The “LPS % cell toxicity” value in series [6] stood at 1%. Besides, in series [7], the “Fibrin % cell toxicity” value turned out to be 1%.

Turning to `O=C1C=C2C=C[C@@H]3C[C@@]2(O1)[C@H]1CCCCN31` [Securinine, reference compound], in series [1], the “Fibrin Selectivity” value came to 3. The “Fibrin Selectivity (LOG10)” value in series [1] worked out at 0.40. The IC50 in series [1] (setting [8]) came to 2 µM; in series [1] (setting [18]) it was 2 µM; in series [1] (setting [9]) it was 2 µM; in series [1] (setting [10]), 2 µM; in series [2] (setting [11]) it was 6 µM; in series [2] (setting [12]), 6 µM. Besides, the IC50 is 6 µM in series [2] (setting [19]); 6 µM in series [2] (setting [13]); above 20 µM in series [4] (Table 3); above 20 µM in series [4] (cFib assay); 12 µM in series [5]. Further, the inhibition at 10 µM is 104% in series [1], 106% in series [2] (48 h), above 50% in series [3] (setting [20]) and above 50% in series [3] (setting [15]). Further, the “Quadrant (FIG. 5b)” value is recorded as “Q2” in series [3] (setting [14]); “Q2” in series [3] (Table 1, screen at 10 μM); “Q2” in series [3] (Table 3, screen at 10 μM); “Q2” in series [3] (setting [17]). In addition, the “LPS % cell toxicity” value in series [6] is 1%. For the same molecule, in series [7], the “Fibrin % cell toxicity” value is recorded as 2%.

Consider `Nc1ccc(S(=O)(=O)Nc2cnc3ccccc3n2)cc1` [Sulfaquinoxaline sodium, reference compound], for which the IC50 in series [1] (setting [8]), in series [1] (setting [9]), in series [1] (setting [10]), in series [2] (setting [11]), in series [2] (setting [12]) and in series [2] (setting [13]) was above 20 µM in each case. The IC50 in series [4] (cFib assay) and in series [5] was above 20 µM each time. For the same molecule, the inhibition at 10 µM in series [1] is 106%; in series [2] (48 h), 104%; in series [3] (setting [15]), above 50%; in series [3] (setting [16]), above 50%. Besides, the “Quadrant (FIG. 5b)” value in series [3] (setting [14]) is “Q2”; in series [3] (Table 1, screen at 10 μM), “Q2”; in series [3] (setting [17]), “Q2”. In series [6], the “LPS % cell toxicity” value is 3%. Also, the “Fibrin % cell toxicity” value in series [7] was found to be 3%.

In the case of `[H]/N=C(/NCCCCC)N/N=C/c1c[nH]c2ccc(OC)cc12` [Tegaserod maleate, reference compound], the “Fibrin Selectivity” value in series [1] is given as 20. Further, in series [1], the “Fibrin Selectivity (LOG10)” value was 1.29. Also, the IC50 in series [1] (setting [8]) worked out at 1 µM; in series [1] (setting [18]), 1 µM; in series [1] (setting [9]) it was 1 µM; in series [1] (setting [10]), 1 µM; in series [2] (setting [11]), 19 µM; in series [2] (setting [12]), 19 µM. Also, the half-inhibitory concentration (IC50) in series [2] (setting [19]) is 19 µM; in series [2] (setting [13]), 19 µM; in series [4] (Table 3), above 20 µM; in series [4] (cFib assay), above 20 µM; in series [5], above 20 µM; in series [6], above 20 µM. Further, the inhibition at 10 µM in series [1] was 100%; in series [2] (48 h), 86%; in series [3] (setting [20]), above 50%; in series [3] (setting [15]) it was above 50%. Moreover, the “Quadrant (FIG. 5b)” value in series [3] (setting [14]) was “Q2”; in series [3] (Table 1, screen at 10 μM) it was “Q2”; in series [3] (Table 3, screen at 10 μM), “Q2”; in series [3] (setting [17]) it was “Q2”. For the same molecule, in series [6], the “LPS % cell toxicity” value turned out to be 2%. The “Fibrin % cell toxicity” value in series [7] was 2%.

(Values after patent US20210330611A1, “THERAPY FOR NEUROLOGICAL DISEASES/DISORDERS” (priority 2020, published 2021).)
